# Counter-ions that a name gives are not always drawn. Like-named read-outs stand apart in the source and are kept apart here. *1 amine or outer side, *2 acyl side, *3 side chain or, on linkers, in order; H or OH if unused. Where a SMILES comes first, the peptide text is derived from it. Bridges are numbered along the chain shown (N, C = ends). [ ]: non-standard residue; d: D form. The star is where a group is joined. hTyr(3S-OH,4S-OH,3'-OSO3H) = N[C@H](C(=O)O)[C@H](O)[C@@H](O)c1ccc(O)c(OS(=O)(=O)O)c1; Orn(4R-OH,5R-OH) = O=C([C@H](C[C@@H](O)[C@@H](O)N[*:3])N[*:1])[*:2]; Pro(3S-OH,4S-Me) = C[C@H]1CN[C@H](C(=O)O)[C@H]1O; X1 = CCCCCOc1ccc(-c2cc(-c3ccc(C(=O)*)cc3)no2)cc1; Gln(3R-OH) = NC(=O)C[C@@H](O)[C@H](N)C(=O)O; Hyp = O=C(O)[C@@H]1C[C@@H](O)CN1
# How the values were obtained:
# [1] = in vitro; conditions: African green monkey, CC50 cell toxicity
# [2] = system: SARS-CoV-2; test: microbe, parasite or virus in culture; assay type: cell-based; conditions: for Selectivity Index (SI): CC50/IC50
# [3] = system: SARS-CoV-2; test: Viral RNA by real-time RT-PCR with primer sets specific to N gene; assay type: cell-based; conditions: virus-infected cells treated with drug
# Experimental: Bromhexine hydrochloride is an inhibitor of TMPRSS2, a cofactor of SARS-CoV-2 entry, and one group reported that the drug was effective on COVID-19 patients in a clinical trial. To further investigate whether bromhexine hydrochloride could inhibit SARS-CoV-2 replication, viral RNA was measured by real-time RT-PCR using primer sets specific to N gene of SARS-CoV-2.
# Fig. 4 Suppression of SARS-CoV-2 replication by bromhexine hydrochloride. Cellular RNAs were isolated from cells infected by SARS-COV-2 and treated with bromhexine hydrochloride. The level of viral RNA was measured by real-time RT-PCR using primer sets specific to N gene of SARS-CoV-2.
# [4] = system: Vero cells; conditions: read-out: CC50 cell toxicity, MTS, no virus, compounds from secondary screening
# [5] = system: SARS-CoV-2; assay type: cell-based; conditions: Vero cells, 20 μM, MOI 0.5, three days after infection, microscopic observation
# [6] = Vero cells, MTS, no virus, compounds from secondary screening
# [7] = compounds from primary screening
# [8] = compounds from secondary screening
# [9] = Severe acute respiratory syndrome coronavirus 2, Vero, 24 h, Vero cells, MOI 2, 24 h post-infection, compounds from primary screening, 100 μM to 0.16 μM, read-out: IC50 antiviral activity
# [10] = Severe acute respiratory syndrome coronavirus 2, Vero, 24 h, Vero cells, MOI 2, 24 h post-infection, compounds from secondary screening, 0.08–50 μM, read-out: IC50 antiviral activity
# [11] = Vero cells, MTS, no virus, compounds from primary screening
# [12] = Severe acute respiratory syndrome coronavirus 2, Vero, 24 h, read-out: IC50 antiviral activity
# [13] = Vero cells, MOI 2, 24 h post-infection, compounds from secondary screening, 0.08–50 μM, read-out: IC50 antiviral activity
Structure (SMILES),"CC50 at 24 h [1, 6] [µM]","Selectivity Index (SI) [2, 7]","Selectivity Index (SI) [2, 8]","IC50 [2, 10] [µM]","CC50 at 24 h [1, 11] [µM]",also measured
Cc1ccc(NC(=O)c2ccc(CN3CCN(C)CC3)cc2)cc1Nc1nccc(-c2cccnc2)n1 [Imatinib],> 50,–,–,–,–,–
CCN(CC)Cc1cc(Nc2ccnc3cc(Cl)ccc23)ccc1O [Amodiaquine],> 50,>17.2,>10.9,4.6,> 100,"IC50 [2, 9]: 5.8 µM"
COc1ccc(CN2CCN(C(c3ccc(F)cc3)c3ccc(F)cc3)CC2)c(OC)c1OC [Lomerizine],–,>7.8,–,–,–,"IC50 [2, 9]: 12.8 µM; CC50 at 24 h [1]: > 100 µM"
CN(Cc1cc(Br)cc(Br)c1N)C1CCCCC1 [Bromhexine hydrochloride],> 50,–,>3.5,–,–,"IC50 [2, 12]: 14.4 µM; Level of intracellular viral RNA [3]: effectively reduced the intracellular RNA"
CN(C)C(=O)C(CCN1CCC(O)(c2ccc(Cl)cc2)CC1)(c1ccccc1)c1ccccc1 [Loperamide hydrochloride],> 50,–,–,–,–,–
CC[C@H]1CN2CC[C@H]1C[C@@H]2[C@@H](O)c1ccnc2ccc(OC)cc12 [hydroquinidine],> 50,–,>2.1,23.8,–,–
CCN(CC)C(C)CN1c2ccccc2Sc2ccccc21 (centres unmarked) [Ethopropazine hydrochloride],> 50,–,>2.5,20.3,–,–
O=C(CCCl)NCc1ccccc1 [Beclamide],–,>1.4,–,–,> 100,"IC50 [2, 12]: 72 µM"
CC(C)N(CCCCOCC(=O)NS(C)(=O)=O)c1cnc(-c2ccccc2)c(-c2ccccc2)n1 [Selexipag],–,–,>5.9,8.5,–,CC50 at 24 h [1]: > 50 µM
C=C[C@H]1C[N@@]2CC[C@H]1C[C@@H]2[C@@H](O)c1ccnc2ccc(OC)cc12 [Quinidine gluconate],> 50,–,>2.1,24.2,–,–
Cc1ccc(-c2cc(C(F)(F)F)nn2-c2ccc(S(N)(=O)=O)cc2)cc1 [Celecoxib],–,4.3,–,–,74.8,"IC50 [2, 9]: 17.5 µM"
"CCCCCOc1ccc(-c2cc(-c3ccc(C(=O)N[C@H]4C[C@@H](O)[C@@H](O)NC(=O)[C@@H]5[C@@H](O)[C@@H](C)CN5C(=O)[C@H]([C@H](O)CC(N)=O)NC(=O)[C@H]([C@H](O)[C@@H](O)c5ccc(O)c(OS(=O)(=O)O)c5)NC(=O)[C@@H]5C[C@@H](O)CN5C(=O)[C@H]([C@@H](C)O)NC4=O)cc3)no2)cc1 [Micafungin] (X1-[Orn(4R-OH,5R-OH)]T[Hyp][hTyr(3S-OH,4S-OH,3'-OSO3H)][Gln(3R-OH)][Pro(3S-OH,4S-Me)]; lactam 1-C)",> 50,>18.1,>3.9,–,> 100,"IC50 ([2]; Severe acute respiratory syndrome coronavirus 2, Vero, 24 h, read-out: IC50 antiviral activity, Vero cells, MOI 2, 24 h post-infection, compounds from primary screening, 100 μM to 0.16 μM): 5.5 µM; IC50 ([2]; Severe acute respiratory syndrome coronavirus 2, Vero, 24 h, read-out: IC50 antiviral activity, Vero cells, MOI 2, 24 h post-infection, compounds from secondary screening, 0.08–50 μM): 12.9 µM"
CC1=NN(c2ccc(C)c(C)c2)C(=O)/C1=N\Nc1cccc(-c2cccc(C(=O)O)c2)c1O [Eltrombopag],43.8,–,21.9,2,–,–
Cc1ccc(NC(=O)c2ccc(CN3CCN(C)CC3)cc2)cc1Nc1nc(-c2cccnc2)cs1 [Masitinib],47.1,–,3.2,–,–,"IC50 [2, 12]: 14.9 µM"
"CCCS(=O)(=O)Nc1ccc(F)c(C(=O)c2c[nH]c3ncc(-c4ccc(Cl)cc4)cc23)c1F [Vemurafenib (PLX4032), Vemurafenib]",–,–,>7.1,7,–,CC50 at 24 h [1]: > 50 µM
CN1CCN(CCCN2c3ccccc3Sc3ccc(S(=O)(=O)N(C)C)cc32)CC1 [Thioproperazine dimesylate],–,–,–,–,–,"IC50 [2, 13]: 13.4 µM; CC50 [4]: 41 µM"
COC(=O)[C@H]1[C@H]2C[C@@H]3c4[nH]c5cc(OC)ccc5c4CCN3C[C@H]2C[C@@H](OC(=O)c2cc(OC)c(OC)c(OC)c2)[C@@H]1OC [Reserpine],> 50,–,>1.7,29.2,–,–
CCCCc1nc(Cl)c(CO)n1Cc1ccc(-c2ccccc2-c2nn[nH]n2)cc1 [Losartan],–,>1.4,–,–,> 100,"IC50 [2, 9]: 72 µM"
CCCCOc1cc(C(=O)NCCN(CC)CC)c2ccccc2n1 [Dibucaine hydrochloride],–,–,>2.3,21.6,–,CC50 at 24 h [1]: > 50 µM
CC(CN1c2ccccc2Sc2ccccc21)N(C)C (centres unmarked) [Promethazine hydrochloride],> 50,–,>2.6,19.1,–,–
CN1CCC(OC(c2ccccc2)c2ccccc2)CC1 [Diphenylpyraline hydrochloride],> 50,–,>1.2,42.4,–,–
C=C[C@@]1(C)CC(=O)[C@]2(O)[C@@]3(C)[C@@H](O)CCC(C)(C)[C@@H]3[C@H](OC(=O)CCN(C)C)[C@H](OC(C)=O)[C@@]2(C)O1 [NKH 477],–,–,–,–,–,"IC50 [2, 13]: 12.7 µM; CC50 [4]: > 50 µM"
CC(C)(C)c1ccc(CN2CCN(C(c3ccccc3)c3ccc(Cl)cc3)CC2)cc1 (centres unmarked) [Buclizine],–,>5.1,–,–,> 100,"IC50 [2, 9]: 19.6 µM"
O=C(O)Cc1cc(I)c(Oc2ccc(O)c(I)c2)c(I)c1 [Tiratricol],> 50,–,>10.9,–,–,"IC50 [2, 12]: 4.6 µM"
CN1CC2c3ccccc3Oc3ccc(Cl)cc3C2C1 (centres unmarked) [Asenapine],> 50,–,–,–,–,–
CCOC(=O)C1=C[C@]2(CC)CCCN3CCc4c(n1c1ccccc41)[C@@H]32 [Vinpocetine],> 50,–,>5.8,8.6,–,–
Cc1cccc(CN2CCN(C(c3ccccc3)c3ccc(Cl)cc3)CC2)c1 (centres unmarked) [Meclizine],–,>17.9,–,–,> 100,"IC50 [2, 9]: 5.6 µM"
Fc1ccc(C(c2ccc(F)cc2)N2CCN(C/C=C/c3ccccc3)CC2)cc1 [Flunarizine],–,–,–,–,> 100,–
CC[C@@H](C(=O)[C@@H](C)[C@@H](O)[C@H](C)[C@@H]1O[C@@H]([C@@H](CC)C(=O)O)CC[C@@H]1C)[C@H]1O[C@]2(C=C[C@@H](O)[C@]3(CC[C@@](C)([C@H]4CC[C@](O)(CC)[C@H](C)O4)O3)O2)[C@H](C)C[C@@H]1C [Salinomycin],–,97.1,–,–,56.3,"IC50 [2, 12]: 0.58 µM"
CCC(CC)COC(=O)[C@H](C)N[P@](=O)(OC[C@H]1O[C@@](C#N)(c2ccc3c(N)ncnn23)[C@H](O)[C@@H]1O)Oc1ccccc1 [Remdesivir],> 50,>20,>10,5,> 100,"IC50 ([2]; Severe acute respiratory syndrome coronavirus 2, Vero, 24 h, Vero cells, 2 MOI, 24 h post-infection, calibration of the assay with reference compound (Fig. 1), read-out: IC50 antiviral activity): 6 µM; IC50 [2, 9]: 5 µM; Inhibition of viral CPE [5]: complete absence of CPE"
